Measured values taken from patent US10478425B2, “5-phenylazaindole derivative having AMPK-activating activity” (Shionogi & Co., Ltd., priority 2016, dated 2019).

target: T1, Human AMPK α2β2γ1 (Homo sapiens, UniProt O43741+P54646); experiment: Test Example 2: activation of phosphorylated human AMPK α2β2γ1 (mobility-shift kinase assay, FL-Peptide 7); assay type: biochemical; details: compound concentration showing 150% relative to the control (100%); human AMPK α2β2γ1 phosphorylated with CaMKK2
T1 construct: The full length cDNAs of human AMPK β2 (NM_005399.3) and human AMPK α2 (NM_006252.3); The full length cDNAs of human AMPK β2 (NM_005399.3); the full length cDNA of human AMPK γ1 (NM_002733.3) had been inserted into pET28b(+); 6×His (N); made in house; host or cells: Escherichia coli BL21 CodonPlus (DE3)-RIL
T1 sequence (P54646 whole entry): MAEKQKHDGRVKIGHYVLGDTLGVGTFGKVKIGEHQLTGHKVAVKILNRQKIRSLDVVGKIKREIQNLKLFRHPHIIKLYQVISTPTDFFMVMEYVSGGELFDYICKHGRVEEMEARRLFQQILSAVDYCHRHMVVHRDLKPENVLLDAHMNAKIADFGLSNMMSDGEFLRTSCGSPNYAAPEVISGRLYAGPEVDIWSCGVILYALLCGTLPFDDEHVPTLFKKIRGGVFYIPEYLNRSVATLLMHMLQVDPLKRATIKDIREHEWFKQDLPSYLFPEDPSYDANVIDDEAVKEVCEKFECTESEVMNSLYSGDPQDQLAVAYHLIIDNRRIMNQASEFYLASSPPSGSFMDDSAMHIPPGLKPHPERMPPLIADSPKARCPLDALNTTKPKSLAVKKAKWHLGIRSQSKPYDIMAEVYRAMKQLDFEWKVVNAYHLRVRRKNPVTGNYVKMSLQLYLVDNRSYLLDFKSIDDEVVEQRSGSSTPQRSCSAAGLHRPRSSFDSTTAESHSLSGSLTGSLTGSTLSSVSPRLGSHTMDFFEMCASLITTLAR
T1 sequence (O43741 whole entry): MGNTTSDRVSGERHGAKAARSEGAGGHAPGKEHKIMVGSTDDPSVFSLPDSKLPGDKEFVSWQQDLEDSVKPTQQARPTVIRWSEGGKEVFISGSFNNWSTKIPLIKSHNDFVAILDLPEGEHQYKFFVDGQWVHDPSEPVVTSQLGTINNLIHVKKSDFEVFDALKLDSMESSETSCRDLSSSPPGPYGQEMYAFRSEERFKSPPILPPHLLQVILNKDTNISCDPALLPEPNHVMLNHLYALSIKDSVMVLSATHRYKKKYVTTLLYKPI
T1 sequence (P54619 whole entry partner): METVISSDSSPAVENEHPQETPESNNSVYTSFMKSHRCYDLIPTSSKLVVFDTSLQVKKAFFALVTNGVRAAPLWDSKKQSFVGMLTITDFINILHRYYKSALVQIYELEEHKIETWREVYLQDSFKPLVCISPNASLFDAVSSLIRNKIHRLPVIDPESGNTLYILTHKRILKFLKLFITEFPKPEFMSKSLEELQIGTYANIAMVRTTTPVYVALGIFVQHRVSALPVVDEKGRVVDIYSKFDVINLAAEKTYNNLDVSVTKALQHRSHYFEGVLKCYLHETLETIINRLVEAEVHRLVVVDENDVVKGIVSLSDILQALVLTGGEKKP
Procedure, shortened: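 His-tagged α2β2γ1 expressed in E. coli was pre-phosphorylated by GST-CaMKKβ (25 °C, 1–1.5 h), then exposed to compound for 10 min (1% DMSO). Reaction: pH 7.0 HEPES, ATP and 1.5 μM FL-Peptide 7 (final), 2 h at 25 °C. Mobility-shift conversion gave % activity increase versus compound-free control.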

**Q.** Which EC150 does the source give for CN1CCC(Oc2ccc(-c3ccc(-c4nc5cc(O[C@@H]6CO[C@H]7[C@@H]6OC[C@H]7O)[nH]c5cc4F)cc3)cc2)C1=O (stereo partly shown) [Compound I-2-32] here?
**A.** 1.3 nM

**Q.** With COCCOc1ccc(-c2ccc(-c3nc4cc(O[C@@H]5CO[C@H]6[C@@H]5OC[C@H]6O)[nH]c4cc3F)cc2)cc1 [Compound I-1-66] as the compound, how does the EC150 read?
**A.** 8.5 nM

**Q.** With CC(=O)N1CCC(Oc2ccc(-c3ccc(-c4nc5cc(O[C@@H]6CO[C@H]7[C@@H]6OC[C@H]7O)[nH]c5cc4F)cc3)cc2)C1 (stereo partly shown) [Compound I-1-27] as the compound, how does the EC150 read?
**A.** 5.8 nM

**Q.** For CN(C)C(=O)OC1CCN(c2ccc(-c3nc4cc(O[C@@H]5CO[C@H]6[C@@H]5OC[C@H]6O)[nH]c4cc3F)cc2)CC1 [Compound I-1-50], which EC150 is on record?
**A.** 23 nM

**Q.** For COCCOC1CCN(c2ccc(-c3nc4cc(O[C@@H]5CO[C@H]6[C@@H]5OC[C@H]6O)[nH]c4cc3F)cc2)CC1 [Compound I-2-34], which EC150 is on record?
**A.** 20 nM

**Q.** Which EC150 does the source give for CC(=O)NC1CCN(c2ccc(-c3nc4cc(O[C@@H]5CO[C@H]6[C@@H]5OC[C@H]6O)[nH]c4cc3F)cc2)CC1 [Compound I-1-31] here?
**A.** 9.5 nM

**Q.** With COC(=O)N[C@H]1CC[C@H](c2ccc(-c3nc4cc(O[C@@H]5CO[C@H]6[C@@H]5OC[C@H]6O)[nH]c4cc3F)cc2)CC1 [Compound I-1-39] as the compound, how does the EC150 read?
**A.** 13 nM

**Q.** Which EC150 does the source give for CP(C)(=O)c1ccc(-c2ccc(-c3nc4cc(O[C@@H]5CO[C@H](CO)C5(F)F)[nH]c4cc3F)cc2)cc1 [Compound I-2-89] here?
**A.** 0.94 nM

same assay, conditions: maximum rate of increase in activity within the measurement range, control = 100%; read-out: Emax

**Q.** With CN1CCC(Oc2ccc(-c3ccc(-c4nc5cc(O[C@@H]6CO[C@H]7[C@@H]6OC[C@H]7O)[nH]c5cc4F)cc3)cc2)C1=O (stereo partly shown) [Compound I-2-32] as the compound, how does the Emax read?
**A.** 379%

**Q.** For COCCOc1ccc(-c2ccc(-c3nc4cc(O[C@@H]5CO[C@H]6[C@@H]5OC[C@H]6O)[nH]c4cc3F)cc2)cc1 [Compound I-1-66], which Emax is on record?
**A.** 333%

**Q.** For CC(=O)N1CCC(Oc2ccc(-c3ccc(-c4nc5cc(O[C@@H]6CO[C@H]7[C@@H]6OC[C@H]7O)[nH]c5cc4F)cc3)cc2)C1 (stereo partly shown) [Compound I-1-27], which Emax is on record?
**A.** 332%

**Q.** Which Emax does the source give for CN(C)C(=O)OC1CCN(c2ccc(-c3nc4cc(O[C@@H]5CO[C@H]6[C@@H]5OC[C@H]6O)[nH]c4cc3F)cc2)CC1 [Compound I-1-50] here?
**A.** 539%

**Q.** For COCCOC1CCN(c2ccc(-c3nc4cc(O[C@@H]5CO[C@H]6[C@@H]5OC[C@H]6O)[nH]c4cc3F)cc2)CC1 [Compound I-2-34], which Emax is on record?
**A.** 425%

**Q.** For CC(=O)NC1CCN(c2ccc(-c3nc4cc(O[C@@H]5CO[C@H]6[C@@H]5OC[C@H]6O)[nH]c4cc3F)cc2)CC1 [Compound I-1-31], which Emax is on record?
**A.** 539%

**Q.** For COC(=O)N[C@H]1CC[C@H](c2ccc(-c3nc4cc(O[C@@H]5CO[C@H]6[C@@H]5OC[C@H]6O)[nH]c4cc3F)cc2)CC1 [Compound I-1-39], which Emax is on record?
**A.** 552%

**Q.** With CP(C)(=O)c1ccc(-c2ccc(-c3nc4cc(O[C@@H]5CO[C@H](CO)C5(F)F)[nH]c4cc3F)cc2)cc1 [Compound I-2-89] as the compound, how does the Emax read?
**A.** 556%

system: phosphorylation of endogenous acetyl-CoA carboxylase (ACC) in L6-GLUT4myc myoblasts; experiment: Test Example 3: cell-based ELISA of ACC (Ser79) phosphorylation for AMPK activation in L6-GLUT4myc myoblasts; details: concentration causing 150% relative to vehicle control (100%), 3 hours, phospho-ACC
Experimental: Cell-based assay for AMPK activation potency of compounds was performed with L6-GLUT4myc myoblasts (J. Biol. Chem. 278:17953-62, 2003) in a 96-well or 384-well plate by detecting the phosphorylation of endogenous acetyl-CoA carboxylase (ACC) using cell-based ELISA method. The cells were seeded in a 96-well plate at a density of 2×10^4 cells per well or in a 384-well plate at a density of 3.5×10^3 cells per well in minimum essential media (α-MEM) supplemented with 10% fetal bovine serum, 100 U/mL penicillin, 100 μg/mL streptomycin, 2 μg/mL blasticidin S hydrochloride and 0.5 mg/mL G418 disulfate, and maintained in a humidified atmosphere of 95% air and 5% CO2 at 37° C. for 24 hours. Following the overnight culture with an assay buffer consisting of 0.1% bovine serum albumin (BSA), 100 U/mL penicillin and 100 μg/mL streptomycin, cells were treated with varying concentrations of compounds or vehicle (dimethyl sulfoxide at a final concentration of 0.33%) in the presence of 0.1% BSA or 4% BSA for 3 hours at room temperature. After fixing cells with ice-cold 4% formaldehyde in Tris-buffered saline (TBS) for 30 min, the fixed cells were rinsed with TBS containing 0.1% or 0.01% Triton X-100 (TBS-T) and quenched with 0.6% hydrogen peroxide in TBS-T, and blocked with a blocking reagent (Blocking One P manufactured by Nacalai Tesque). Then, anti-phospho-ACC (Ser79) antibody as the primary antibody (manufactured by Cell Signaling Technology) diluted with TBS-T containing 5% Blocking One P was added to each well and the plate was incubated overnight at 4° C. After rinsing each well with TBS-T, horseradish peroxidase (HRP)-conjugated anti-rabbit IgG as the secondary antibody diluted with TBS-T containing 5% Blocking One P was added to each well and the plate was incubated for 1 hour in 96-well plate or for 5 hours in 384-well plate at room temperature. Each well of the plate was rinsed with TBS-T and added a chemiluminescent reagent (ImmunoStar® LD manufactured by Wako Pure Chemical Industries) for detection of HRP conjugates. Ten minutes later, the luminescence intensity was measured using luminometer (ViewLux or ARVO manufactured by PerkinElmer). The luminescence in the presence of compound was calculated as the rate of change relative to vehicle control, which is in the absence of compound.

**Q.** For O=C1NCCC1Oc1ccc(-c2ccc(-c3nc4cc(O[C@@H]5CO[C@H]6[C@@H]5OC[C@H]6O)[nH]c4cc3F)cc2)cc1 (stereo partly shown) [Compound I-1-70], which EC (150% of control) is on record?
**A.** 0.156 µM

**Q.** Which EC (150% of control) does the source give for CN1CCC(Oc2ccc(-c3ccc(-c4nc5cc(O[C@@H]6CO[C@H]7[C@@H]6OC[C@H]7O)[nH]c5cc4F)cc3)cc2)C1=O (stereo partly shown) [Compound I-2-32] here?
**A.** 0.086 µM

**Q.** With COCCOc1ccc(-c2ccc(-c3nc4cc(O[C@@H]5CO[C@H]6[C@@H]5OC[C@H]6O)[nH]c4cc3F)cc2)cc1 [Compound I-1-66] as the compound, how does the EC (150% of control) read?
**A.** 0.103 µM

**Q.** With CC(=O)N1CCC(Oc2ccc(-c3ccc(-c4nc5cc(O[C@@H]6CO[C@H]7[C@@H]6OC[C@H]7O)[nH]c5cc4F)cc3)cc2)C1 (stereo partly shown) [Compound I-1-27] as the compound, how does the EC (150% of control) read?
**A.** 0.168 µM

same assay, conditions: maximum response within varying concentrations, vehicle control = 100%

**Q.** Which Emax does the source give for O=C1NCCC1Oc1ccc(-c2ccc(-c3nc4cc(O[C@@H]5CO[C@H]6[C@@H]5OC[C@H]6O)[nH]c4cc3F)cc2)cc1 (stereo partly shown) [Compound I-1-70] here?
**A.** 512%

**Q.** For CN1CCC(Oc2ccc(-c3ccc(-c4nc5cc(O[C@@H]6CO[C@H]7[C@@H]6OC[C@H]7O)[nH]c5cc4F)cc3)cc2)C1=O (stereo partly shown) [Compound I-2-32], which Emax is on record?
**A.** 531%

**Q.** For COCCOc1ccc(-c2ccc(-c3nc4cc(O[C@@H]5CO[C@H]6[C@@H]5OC[C@H]6O)[nH]c4cc3F)cc2)cc1 [Compound I-1-66], which Emax is on record?
**A.** 635%

**Q.** With CC(=O)N1CCC(Oc2ccc(-c3ccc(-c4nc5cc(O[C@@H]6CO[C@H]7[C@@H]6OC[C@H]7O)[nH]c5cc4F)cc3)cc2)C1 (stereo partly shown) [Compound I-1-27] as the compound, how does the Emax read?
**A.** 473%

system: not listed separately; experiment: BA test (oral absorption); assay type: in vivo; details: rat, plasma; rats; calculated from AUCs of oral and intravenous administration groups
Experimental: • (1) Animals: mice or rats • (2) Animal husbandry: Mice and rats had free access to solid food and sterilized bottled tap water. • (3) Setting of dose and group compositions: orally or intravenously administered at a predetermined dose Group compositions were as shown below. (Dose depends on the compound)
Oral: 1 to 30 mg/kg (n=2 to 3)
Intravenous: 0.5 to 10 mg/kg (n=2 to 3) • (4) Preparation of administration formulation: for oral administration, in a solution or a suspension state; for intravenous administration, in a solubilized state • (5) Dosing procedure: In oral administration study, the test substance was forcibly administered to the stomach by using a gavage tube. In intravenous administration study, the test substance was administered via tail vein using a syringe with a needle. • (6) Evaluation items: Blood was collected at each time point, and plasma concentration of the drug was determined by LC/MS/MS. • (7) Data analysis: Regarding the transition of the plasma concentration, area under the plasma concentration-time curve (AUC) was calculated by means of WinNonlin® program, respectively. Bioavailability (BA) was calculated from AUCs of the oral administration group and intravenous administration group.

**Q.** With O=C1NCCC1Oc1ccc(-c2ccc(-c3nc4cc(O[C@@H]5CO[C@H]6[C@@H]5OC[C@H]6O)[nH]c4cc3F)cc2)cc1 (stereo partly shown) [Compound I-1-70] as the compound, how does the bioavailability read?
**A.** 25.5%

**Q.** For CN1CCC(Oc2ccc(-c3ccc(-c4nc5cc(O[C@@H]6CO[C@H]7[C@@H]6OC[C@H]7O)[nH]c5cc4F)cc3)cc2)C1=O (stereo partly shown) [Compound I-2-32], which bioavailability is on record?
**A.** 28.6%

**Q.** Which bioavailability does the source give for COCCOc1ccc(-c2ccc(-c3nc4cc(O[C@@H]5CO[C@H]6[C@@H]5OC[C@H]6O)[nH]c4cc3F)cc2)cc1 [Compound I-1-66] here?
**A.** 38.8%

**Q.** Which bioavailability does the source give for CC(=O)N1CCC(Oc2ccc(-c3ccc(-c4nc5cc(O[C@@H]6CO[C@H]7[C@@H]6OC[C@H]7O)[nH]c5cc4F)cc3)cc2)C1 (stereo partly shown) [Compound I-1-27] here?
**A.** 19.6%
